Measurements from ChEMBL document CHEMBL4359837, “Discovery of 2-(4-Chloro-3-(trifluoromethyl)phenyl)-N-(4-((6,7-dimethoxyquinolin-4-yl)oxy)phenyl)acetamide (CHMFL-KIT-64) as a Novel Orally Available Potent Inhibitor against Broad-Spectrum Mutants of c-KIT Kinase for Gastrointestinal Stromal Tumors” (J Med Chem, 2019).
pEC50, pIC50: −log10 of the molar value. Calls of active or inactive are those of the source. No cut-off for these calls is given here.

Experiments:
[1] = tested on: Mast/stem cell growth factor receptor Kit (Homo sapiens), P10721 [UNDEFINED MUTATION]; conditions: GISTT1, 0.1 uM
Description: Inhibition of c-KIT 560 to 578 deletion mutant in human GISTT1 cells assessed as reduction in STAT3 phosphorylation at Y705 residue at 0.1 uM measured after 2 hrs by Western blot analysis

[2] = tested on: Mast/stem cell growth factor receptor Kit (Homo sapiens), P10721 [UNDEFINED MUTATION]; conditions: GISTT1, 0.1 uM; remark: listed apart in the source
Description: Inhibition of c-KIT 560 to 578 deletion/T670I mutant in human GISTT1 cells assessed as reduction in STAT3 phosphorylation at Y705 residue at 0.1 uM measured after 2 hrs by Western blot analysis

[3] = target: RAC-alpha serine/threonine-protein kinase (Homo sapiens) (UniProt P31749); conditions: 0.1 uM
Description: Inhibition of AKT autophosphorylation at T308 residue in human GIST5R cells harboring c-KIT 560 to 578 deletion/T670I mutant at 0.1 uM measured after 2 hrs by Western blot analysis

[4] = tested on: Mast/stem cell growth factor receptor Kit (Homo sapiens), P10721 [UNDEFINED MUTATION]; conditions: GISTT1, 0.1 uM; remark: listed apart in the source
Description: Inhibition of c-KIT 560 to 578 deletion mutant in human GISTT1 cells assessed as reduction in c-KIT autophosphorylation at Y703 residue at 0.1 uM measured after 2 hrs by Western blot analysis

[5] = tested on: Mast/stem cell growth factor receptor Kit (Homo sapiens), P10721 [UNDEFINED MUTATION]; conditions: 0.1 uM
Description: Inhibition of c-KIT 560 to 578 deletion/T670I mutant in human GIST5R cells assessed as reduction in c-KIT autophosphorylation at Y719 residue at 0.1 uM measured after 2 hrs by Western blot analysis

[6] = tested on: Mast/stem cell growth factor receptor Kit (Homo sapiens), P10721 [UNDEFINED MUTATION]; conditions: GISTT1, 0.1 uM; remark: listed apart in the source
Description: Inhibition of c-KIT 560 to 578 deletion mutant in human GISTT1 cells assessed as reduction in ERK phosphorylation at T202 residue at 0.1 uM measured after 2 hrs by Western blot analysis

[7] = tested on: Mast/stem cell growth factor receptor Kit (Homo sapiens), P10721 [UNDEFINED MUTATION]; conditions: GISTT1, 0.1 uM; remark: listed apart in the source
Description: Inhibition of c-KIT 560 to 578 deletion mutant in human GISTT1 cells assessed as reduction in ERK phosphorylation at T204 residue at 0.1 uM measured after 2 hrs by Western blot analysis

[8] = tested on: Mast/stem cell growth factor receptor Kit (Homo sapiens), P10721 [UNDEFINED MUTATION]; conditions: GISTT1, 0.1 uM; remark: listed apart in the source
Description: Inhibition of c-KIT 560 to 578 deletion/T670I mutant in human GISTT1 cells assessed as reduction in AKT phosphorylation at S473 residue at 0.1 uM measured after 2 hrs by Western blot analysis

[9] = tested on: Mast/stem cell growth factor receptor Kit (Homo sapiens), P10721 [UNDEFINED MUTATION]; conditions: 0.1 uM; remark: listed apart in the source
Description: Inhibition of c-KIT 560 to 578 deletion/T670I mutant in human GIST5R assessed as reduction in pS6 phosphorylation at S235 residue at 0.1 uM measured after 2 hrs by Western blot analysis

[10] = tested on: Mast/stem cell growth factor receptor Kit (Homo sapiens), P10721 [UNDEFINED MUTATION]; conditions: 0.1 uM; remark: listed apart in the source
Description: Inhibition of c-KIT 560 to 578 deletion/T670I mutant in human GIST5R assessed as reduction in pS6 phosphorylation at S236 residue at 0.1 uM measured after 2 hrs by Western blot analysis

[11] = Antitumor activity against mouse BAF3(transformed) cells harboring c-KIT Y823D mutant implanted in BALB/c nu mouse assessed as tumor weight at 80 mg/kg/day, po administered via gavage for 9 days (reference value: 0.96 g); assay type: functional
[12] = target: Mast/stem cell growth factor receptor Kit (Homo sapiens, UniProt P10721); assay: Inhibition of human KIT
[13] = target: Macrophage colony-stimulating factor 1 receptor (Homo sapiens, UniProt P07333); assay: Inhibition of recombinant human His-tagged CSF1R cytoplasmic domain (538 to 910 residues) expressed in baculovirus expression system by Z-lyte assay
[14] = Inhibition of recombinant human GST-tagged FLT4 cytoplasmic domain Q890H/V1128L/H1146R mutant (800 to 1297 residues) expressed in baculovirus expression system by Z-lyte assay
[15] = target: Macrophage colony-stimulating factor 1 receptor (Mus musculus) (UniProt P09581); assay: Inhibition of CSF1R in mouse BAF3(transformed) cells assessed as growth inhibition after 72 hrs by CCK8 assay
[16] = target: Epithelial discoidin domain-containing receptor 1 (Mus musculus) (UniProt Q03146); assay: Inhibition of DDR1 in mouse BAF3(transformed) cells assessed as growth inhibition after 72 hrs by CCK8 assay
[17] = target: Vascular endothelial growth factor receptor 3 (Mus musculus) (UniProt P35917); assay: Inhibition of FLT4 in mouse BAF3(transformed) cells assessed as growth inhibition after 72 hrs by CCK8 assay
[18] = target: Proto-oncogene tyrosine-protein kinase receptor Ret (Mus musculus) (UniProt P35546); assay: Inhibition of RET in mouse BAF3(transformed) cells assessed as growth inhibition after 72 hrs by CCK8 assay
[19] = target: T1, Mast/stem cell growth factor receptor Kit (Homo sapiens, UniProt P10721, 560-578DEL/T670I); assay type: cell-based, GISTT1
[20] = target: T1, Mast/stem cell growth factor receptor Kit; assay type: cell-based
[21] = target: T2, Mast/stem cell growth factor receptor Kit (Homo sapiens, UniProt P10721, 560-578DEL); assay type: cell-based, GISTT1
[22] = target: T2, Mast/stem cell growth factor receptor Kit; assay type: cell-based, GISTT1; remark: listed apart in the source
[23] = target: T1, Mast/stem cell growth factor receptor Kit; assay type: cell-based, GISTT1; remark: listed apart in the source
[24] = target: T1, Mast/stem cell growth factor receptor Kit; assay type: cell-based, GISTT1; remark: listed apart in the source
[25] = target: T1, Mast/stem cell growth factor receptor Kit; assay type: cell-based, GISTT1; remark: listed apart in the source
[26] = target: T1, Mast/stem cell growth factor receptor Kit
[27] = target: RAC-alpha serine/threonine-protein kinase (Homo sapiens) (UniProt P31749); assay type: cell-based; conditions: GISTT1
GISTT1 [28] = assay type: functional, cell-based; conditions: Homo sapiens
Homo sapiens = species: Homo sapiens; assay type: functional, cell-based
[29] = Half life in Sprague-Dawley rat at 10 mg/kg, po by LC-MS/MS analysis; assay type: ADME, organism-based; conditions: in vivo
[30] = Tmax in mouse at 1 mg/kg, iv by LC-MS/MS analysis; assay type: ADME, organism-based; conditions: in vivo
[31] = Tmax in mouse at 10 mg/kg, po by LC-MS/MS analysis; assay type: ADME, organism-based; conditions: in vivo
[32] = Cmax in mouse at 10 mg/kg, po by LC-MS/MS analysis; assay type: ADME, organism-based; design: dose 10 mg/kg, route oral; conditions: in vivo
[33] = AUC (0 to t) in Beagle dog at 1 mg/kg, iv by LC-MS/MS analysis; assay type: ADME, organism-based, Canis lupus familiaris; conditions: in vivo
[34] = Tmax in Beagle dog at 1 mg/kg, iv by LC-MS/MS analysis; assay type: ADME, organism-based, Canis lupus familiaris; conditions: in vivo
[35] = AUC (0 to t) in Beagle dog at 5 mg/kg, po by LC-MS/MS analysis; assay type: ADME, organism-based, Canis lupus familiaris; conditions: in vivo
[36] = Tmax in Beagle dog at 5 mg/kg, po by LC-MS/MS analysis; assay type: ADME, organism-based, Canis lupus familiaris; conditions: in vivo
[37] = Half life in Beagle dog at 5 mg/kg, po by LC-MS/MS analysis; assay type: ADME, organism-based, Canis lupus familiaris; conditions: in vivo
[38] = Oral bioavailability in Beagle dog at 5 mg/kg by LC-MS/MS analysis; assay type: ADME, organism-based, Canis lupus familiaris; conditions: in vivo
Mus musculus [39] = assay type: functional, organism-based; conditions: BALB/c, 80 mg/kg
Mus musculus [40] = assay type: functional, organism-based; conditions: BALB/c, 80 mg/kg; remark: listed apart in the source
[41] = Protein binding in plasma (unknown origin); assay type: ADME, cell-free; conditions: read-out: PPB
[42] = Antitumor activity against mouse BAF3(transformed) cells harboring c-KIT Y823D mutant implanted in BALB/c nu mouse assessed as tumor growth inhibition at 40 mg/kg/day, po administered via gavage for 9 days relative to control; assay type: functional; conditions: 216 h, read-out: TGI
[43] = Antitumor activity against mouse BAF3(transformed) cells harboring c-KIT Y823D mutant implanted in BALB/c nu mouse assessed as tumor growth inhibition at 80 mg/kg/day, po administered via gavage for 9 days relative to control; assay type: functional; conditions: 216 h, read-out: TGI
GISTT1 [44] = assay type: functional, Homo sapiens; conditions: Mus musculus, GISTT1, po, 672 h; read-out: TGI
GISTT1 [45] = assay type: functional, Homo sapiens; conditions: Mus musculus, GISTT1, po, 672 h; read-out: TGI; remark: listed apart in the source
GISTT1 [46] = assay type: functional, cell-based; conditions: Homo sapiens; remark: listed apart in the source
[47] = Toxicity in BALB/c nu mouse implanted with mouse BAF3(transformed) cells harboring c-KIT Y823D mutant assessed as change in body weight at 40 to 80 mg/kg/day, po administered via gavage for 9 days measured daily during compound dosing; assay type: organism-based; conditions: in vivo, 216 h
[48] = tested on: Mast/stem cell growth factor receptor Kit (Homo sapiens), P10721 [T670I]; conditions: Mus musculus
Description: Inhibition of c-KIT T670I mutant in mouse BAF3(transformed) cells assessed as growth inhibition after 72 hrs by CCK8 assay

[49] = tested on: Mast/stem cell growth factor receptor Kit (Homo sapiens), P10721 [L576P]; conditions: Mus musculus

T1 sequence (P10721 whole entry, looked up, stated change not applied): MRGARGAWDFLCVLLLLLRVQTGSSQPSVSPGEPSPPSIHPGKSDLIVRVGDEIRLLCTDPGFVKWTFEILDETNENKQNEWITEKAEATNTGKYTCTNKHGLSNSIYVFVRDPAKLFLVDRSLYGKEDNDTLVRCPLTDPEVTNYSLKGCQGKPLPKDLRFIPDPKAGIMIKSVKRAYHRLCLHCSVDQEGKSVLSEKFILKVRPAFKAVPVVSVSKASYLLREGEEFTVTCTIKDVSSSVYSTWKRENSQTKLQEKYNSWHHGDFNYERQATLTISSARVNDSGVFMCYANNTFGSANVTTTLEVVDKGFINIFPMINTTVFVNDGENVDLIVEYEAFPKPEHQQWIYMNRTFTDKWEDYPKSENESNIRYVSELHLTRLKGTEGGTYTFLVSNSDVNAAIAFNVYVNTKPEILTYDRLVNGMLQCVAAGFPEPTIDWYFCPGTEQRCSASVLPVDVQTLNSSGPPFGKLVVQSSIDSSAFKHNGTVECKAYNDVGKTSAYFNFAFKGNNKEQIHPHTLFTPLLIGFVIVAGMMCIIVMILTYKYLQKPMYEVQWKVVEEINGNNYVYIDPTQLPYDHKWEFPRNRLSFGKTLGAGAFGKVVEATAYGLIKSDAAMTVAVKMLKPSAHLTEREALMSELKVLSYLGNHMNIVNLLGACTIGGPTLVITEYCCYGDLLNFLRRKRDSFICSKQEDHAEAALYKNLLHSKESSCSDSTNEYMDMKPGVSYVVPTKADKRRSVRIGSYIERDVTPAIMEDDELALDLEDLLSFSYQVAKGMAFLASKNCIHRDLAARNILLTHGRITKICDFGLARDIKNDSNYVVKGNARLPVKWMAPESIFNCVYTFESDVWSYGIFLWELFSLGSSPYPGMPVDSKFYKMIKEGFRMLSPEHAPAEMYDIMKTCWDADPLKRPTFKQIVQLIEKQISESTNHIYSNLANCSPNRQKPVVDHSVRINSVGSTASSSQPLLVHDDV
Sequence of Mast/stem cell growth factor receptor Kit (Homo sapiens), P10721 [UNDEFINED MUTATION] (P10721 whole entry, looked up, change not shown): as the sequence (P10721 whole entry, looked up, stated change not applied) above
Sequence of RAC-alpha serine/threonine-protein kinase (Homo sapiens) (P31749 whole entry): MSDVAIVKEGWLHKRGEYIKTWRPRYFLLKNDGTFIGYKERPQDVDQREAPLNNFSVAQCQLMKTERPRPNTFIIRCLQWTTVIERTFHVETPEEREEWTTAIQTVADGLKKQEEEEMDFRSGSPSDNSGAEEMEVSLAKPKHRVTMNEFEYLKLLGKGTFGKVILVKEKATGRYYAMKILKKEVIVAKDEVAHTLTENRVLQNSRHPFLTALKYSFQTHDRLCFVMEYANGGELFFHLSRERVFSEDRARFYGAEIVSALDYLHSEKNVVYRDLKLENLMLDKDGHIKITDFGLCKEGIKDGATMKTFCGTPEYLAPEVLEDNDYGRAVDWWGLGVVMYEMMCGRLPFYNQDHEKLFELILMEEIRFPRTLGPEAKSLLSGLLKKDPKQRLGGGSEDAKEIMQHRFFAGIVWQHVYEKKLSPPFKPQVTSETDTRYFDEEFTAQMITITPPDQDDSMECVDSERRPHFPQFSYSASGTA
T2 sequence (P10721 whole entry, looked up, stated change not applied): as the sequence (P10721 whole entry, looked up, stated change not applied) above
Sequence of Epithelial discoidin domain-containing receptor 1 (Mus musculus) (Q03146 whole entry, the tested form may be a part): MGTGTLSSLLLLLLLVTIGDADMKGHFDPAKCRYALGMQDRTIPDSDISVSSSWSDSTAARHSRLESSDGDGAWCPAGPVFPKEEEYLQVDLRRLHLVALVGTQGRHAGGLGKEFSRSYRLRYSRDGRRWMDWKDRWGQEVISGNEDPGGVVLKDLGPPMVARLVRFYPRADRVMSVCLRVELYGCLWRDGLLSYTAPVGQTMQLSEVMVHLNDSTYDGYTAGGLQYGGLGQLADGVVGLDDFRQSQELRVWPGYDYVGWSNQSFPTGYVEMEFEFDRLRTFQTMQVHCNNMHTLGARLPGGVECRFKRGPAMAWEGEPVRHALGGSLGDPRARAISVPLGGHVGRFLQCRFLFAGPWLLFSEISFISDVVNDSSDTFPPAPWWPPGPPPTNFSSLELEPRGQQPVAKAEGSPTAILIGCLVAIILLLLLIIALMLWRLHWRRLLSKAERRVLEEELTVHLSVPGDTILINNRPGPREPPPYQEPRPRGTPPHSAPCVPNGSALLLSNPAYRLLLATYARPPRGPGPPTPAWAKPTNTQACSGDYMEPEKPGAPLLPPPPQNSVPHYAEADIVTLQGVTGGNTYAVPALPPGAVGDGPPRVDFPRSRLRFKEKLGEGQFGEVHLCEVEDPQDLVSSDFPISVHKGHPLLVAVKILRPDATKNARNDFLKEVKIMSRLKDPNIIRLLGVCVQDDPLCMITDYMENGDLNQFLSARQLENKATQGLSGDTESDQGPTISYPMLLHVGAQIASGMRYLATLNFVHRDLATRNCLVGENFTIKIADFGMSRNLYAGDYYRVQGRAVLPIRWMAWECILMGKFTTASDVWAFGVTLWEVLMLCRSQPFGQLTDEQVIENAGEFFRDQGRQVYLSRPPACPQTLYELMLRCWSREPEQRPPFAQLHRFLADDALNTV

Q: For CCN(CC)CCNC(=O)c1c(C)[nH]c(/C=C2\C(=O)Nc3ccc(F)cc32)c1C [SUNITINIB], which inhibition [1] is on record?
A: Active

Q: What about the inhibition [2] of the same compound?
A: Active

Q: And the inhibition [3]?
A: Active

Q: And the inhibition [4]?
A: Active

Q: And the inhibition [5]?
A: Active

Q: And the inhibition [6]?
A: Active

Q: What about the inhibition [7] of the same compound?
A: Active

Q: What about the inhibition [8] of the same compound?
A: Active

Q: And the inhibition [9]?
A: Active

Q: What about the inhibition [10] of the same compound?
A: Active

Q: Which results are given for COc1cc2nccc(Oc3ccc(NC(=O)Cc4ccc(Cl)c(C(F)(F)F)c4)cc3)c2cc1OC?
A: Activity [11]: 0.09 g; pIC50 [12]: 8.40; pIC50 [13]: 7.74; pIC50 [14]: 6.92; GI50 [15]: 3 nM; GI50 [16]: > 1000 nM; GI50 [17]: 522 nM; GI50 [18]: 280 nM; pEC50 [19]: > 7.00; pEC50 [20]: > 7.00; pEC50 [21]: > 7.00; pEC50 [22]: > 7.00; pEC50 [23]: > 7.00; pEC50 [24]: > 7.00; pEC50 [25]: > 7.00; pEC50 [26]: > 7.00; inhibition [27]: inactive; Activity (GISTT1 [28]): Dose-dependent effect; Activity (Homo sapiens): Dose-dependent effect; half-life [29]: 6.41 h; Tmax [30]: 1.8 min; Tmax [31]: 4 h; Cmax [32]: 1390 ng/mL; AUC(0-t) [33]: 5320 ng·h/mL; Tmax [34]: 1.98 min; AUC(0-t) [35]: 19100 ng·h/mL; Tmax [36]: 5.33 h; half-life [37]: 19.4 h; bioavailability [38]: 81%; inhibition (Mus musculus [39]): inactive; inhibition (Mus musculus [40]): inactive; fraction unbound [41]: < 0.1; inhibition in vivo at 40 mg/kg/day [42]: 81.8%; inhibition in vivo at 80 mg/kg/day [43]: 90.2%; inhibition in vivo at 20 mg/kg/day (GISTT1 [44]): 95.6%; inhibition in vivo at 40 mg/kg/day (GISTT1 [45]): 96.9%; TGI (GISTT1 [46]): Dose-dependent effect; Activity [47]: Non-Toxic; GI50 [48]: 4 nM; GI50 [49]: 1 nM
